Consider 5 molecules from patent US8378102B2, “Oxime and hydroxylamine substituted thiazolo[4,5-c] ring compounds and methods” (3M Innovative Properties Company, priority 2005, dated 2013).

SMILES strings stand for the structures.

Broadly, the melting point is the temperature, or range, at which the solid turns liquid. Turning to `CON=Cc1nc2c(N)nc3cc(Br)ccc3c2s1` [Example 3, 4-Amino-7-bromo[1,3]thiazolo[4,5-c]quinoline-2-carbaldehyde O-methyloxime], the melting point fell in the range of 262 to 264 °C.

Turning to `CON=Cc1nc2c(N)nc3cc(-c4ccccc4)ccc3c2s1` [Example 138, 4-Amino-7-phenyl-thiazolo[4,5-c]quinoline-2-carbaldehyde O-methyl-oxime], the melting point is 259 to 261 °C.

On to `CON=Cc1nc2c(N)nc3cc(-c4cccc(NS(C)(=O)=O)c4)ccc3c2s1` [Example 139, N-{3-[4-Amino-2-(methoxyimino-methyl)-thiazolo[4,5-c]quinolin-7-yl]-phenyl}-methanesulfonamide], for which the melting point was in the range of 254 to 256 °C.

Turning to `CC(C)=NOCc1nc2c(N)nc3ccccc3c2s1` [Example 1, Acetone O-[(4-amino[1,3]thiazolo[4,5-c]quinolin-2-yl)methyl]oxime], the melting point lay within 152 to 153 °C.

Take `CC(C)=NOCc1nc2c(N)nc3cc(Br)ccc3c2s1` [Example 2, Acetone O-(4-amino-7-bromo[1,3]thiazolo[4,5-c]quinolin-2-ylmethyl)oxime]: the melting point fell in the range of 211 to 213 °C.
